Where a name gives a salt, the structure may show the parent alone.
Tests used:
ZIKV (PRVABC59 strain) = assay: ZIKV PRVABC59 infection of hNPCs (immunocytochemistry); type: cell-based, Zika virus; details: MOI=0.125, 72 h
Procedure: (§1) (A) Scheme of high content chemical screen. (B) Chemical structure of hit compounds. (C) Inhibitory curve and IC50 of HH or AQ on hNPCs (n=6). (D-H) Immunocytochemistry analysis (D), the quantification of the infection rate (E), the quantification of proliferation rate (F), the quantification of cell apoptosis rate (G) and the normalized cell viability (H) of hNPCs at 72 h after ZIKV (MR 766 strain) infection with or without drug treatment. Scale bars, 100 μm. The ZIKV infection rate is defined as the percentage of ZIKV E^+ cells. The proliferation rate is defined as the percentages of Ki67^+ cells. The cell apoptosis rate was defined as the percentage of cleaved-Caspase 3/CAS3^+ cells. The normalized cell viability was calculated by dividing the total cell number of each condition by the total cell number under mock infection conditions. (n=6). […] (K) Quantification of ZIKV infectious particles produced by ZIKV-infected hNPCs with or without compound treatment by the Vero cell reinfection assay. […] (M and N) Immunocytochemistry analysis (M) and quantification of the infection rate (N) of hNPCs at 72 h after ZIKV (PRVABC59 strain) infection with or without drug treatment (n=6). Scale bars, 100 μm. p values were calculated by one-way repeated measures ANOVA with a Bonferroni test for multiple comparisons. *p<0.05, **p<0.01 and ***p<0.001. […]

ZIKV (MR766 strain) = assay: Vero cell re-infection assay (infectious ZIKV in hNPC supernatant); type: cell-based, Zika virus; details: supernatant of hNPC cultures, 72 h after infection
Procedure: as §1

| Compound | ZIKV (PRVABC59) infection of hNPCs (ZIKV (PRVABC59 strain); 25 μM HH) | production of infectious ZIKV, Vero cell re-infection assay (ZIKV (MR766 strain)) | ZIKV (PRVABC59) infection of hNPCs (ZIKV (PRVABC59 strain); 15 μM AQ) |
| --- | --- | --- | --- |
| CN1CCC2=C[C@H](O)[C@H]3OC(=O)c4cc5c(cc4[C@H]3[C@@H]21)OCO5 [HH, hippeastrine hydrobromide] | effectively inhibited ZIKV infection | significantly suppressed |  |
| CCN(CC)Cc1cc(Nc2ccnc3cc(Cl)ccc23)ccc1O [AQ, amodiaquine dihydrochloride dihydrate] |  | significantly suppressed | effectively inhibited ZIKV infection |
